Each structure is given as a SMILES string. The source made the active and inactive calls. Cut-off read from the data, not from the text of the source: actives have a measured IC50 and inactives only a lower limit.

The IC50 is the concentration at which inhibition is half-maximal.

Sequence of Envelope glycoprotein gp160 (Q6QLK5 whole entry, the tested form may be a part): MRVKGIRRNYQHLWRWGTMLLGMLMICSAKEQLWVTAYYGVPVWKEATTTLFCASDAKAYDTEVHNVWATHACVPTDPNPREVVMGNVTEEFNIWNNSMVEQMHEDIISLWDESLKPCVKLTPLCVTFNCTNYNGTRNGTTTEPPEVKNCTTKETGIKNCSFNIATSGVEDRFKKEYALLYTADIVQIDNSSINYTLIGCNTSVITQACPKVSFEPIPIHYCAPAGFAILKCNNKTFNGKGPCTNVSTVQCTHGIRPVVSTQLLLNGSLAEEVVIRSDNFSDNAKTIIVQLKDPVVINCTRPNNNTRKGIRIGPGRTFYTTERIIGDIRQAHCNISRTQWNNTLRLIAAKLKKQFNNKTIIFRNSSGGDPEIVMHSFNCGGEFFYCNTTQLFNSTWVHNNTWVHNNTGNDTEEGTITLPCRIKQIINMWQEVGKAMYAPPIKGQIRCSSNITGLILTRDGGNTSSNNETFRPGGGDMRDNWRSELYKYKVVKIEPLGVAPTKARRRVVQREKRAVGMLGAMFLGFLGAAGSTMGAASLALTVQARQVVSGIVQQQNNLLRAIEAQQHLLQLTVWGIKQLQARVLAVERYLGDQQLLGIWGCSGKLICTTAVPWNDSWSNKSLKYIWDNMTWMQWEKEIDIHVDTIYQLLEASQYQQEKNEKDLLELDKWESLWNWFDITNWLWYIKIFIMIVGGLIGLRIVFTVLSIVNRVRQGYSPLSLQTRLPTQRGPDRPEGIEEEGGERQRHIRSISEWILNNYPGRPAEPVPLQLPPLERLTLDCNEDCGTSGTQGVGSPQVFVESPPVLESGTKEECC

The assay concerns the target Envelope glycoprotein gp160 (Human immunodeficiency virus 1, UniProt Q6QLK5). The assay can be described thus: cell-free HIV fusion peptide-binding blockers – biochemical, uHTS, fluorescence dequenching, […] (AID 1986).
`CC(C)(C)c1ccc(OCC(=O)NNC(=S)NC(=O)c2ccccc2[N+](=O)[O-])c(Br)c1`: the IC50 is 28.7 µM (active).
On to `O=C(O)CN1C(=O)/C(=C\c2cc(Br)ccc2OCc2ccc(Cl)cc2Cl)SC1=S`, for which the IC50 was 13.1 µM (active).
The result for `NS(=O)(=O)c1cc(C(=O)NC2CCSc3ccccc32)ccc1Cl` (centres undefined) reads 8.22 µM (active).
The result for `CCCCCC(=O)Cc1cc(O)cc2c1C(=O)Oc1cc(O)c(C(=O)O)c(CCCCC)c1O2` [PHYSODIC ACID] reads 4.1 µM (active).
